Consider 2 compounds from patent US4006240A, “Alcohol aversion process by enzyme inhibition” (priority 1975, dated 1977).

The test system of one series is C57B1/6J mice. Put plainly: Ethanol aversion in C57B1/6J mice, free choice of water and 5% ethanol. It is filed as in vivo, mouse. To be noted: for 5% alcohol daily consumption: 2 mg./kg. i.p. at 12 hourly intervals; for 5% alcohol daily consumption / Water daily consumption: N = 8. Here is the method:
Adult male C57B1/6J mice weighing 20-25 g. were then placed into individual cages equipped with two small drinking tubes, one filled with water and the other with 5% ethanol in water. Food, water and alcohol solution were available ad libitum and the daily consumption of each was recorded at 10 a.m. The positions of the tubes were interchanged daily and different tubes were ocassionally substituted. After a period of 4 days to establish a reference base for alcohol and water consumption respectively, the animals were treated by intraperitoneal injection with 2 mg./kg. of body weight of trans-4-[2-(1-naphthyl)vinyl]-pyridine hydrochloride at 12 hourly intervals on the 5th and 6th days. Drug treatment was terminated on the 6th day and the animals were kept for an additional two days. The average values of water, 5% alcohol, and total fluid intake for each of these 8 days of the experiment are shown in the following table.

Series [1] can be described thus: Dose without significant effect on water or total fluid intake. The note with it: mouse, in vivo, ip; intraperitoneal injection at 12 hourly intervals, read from dose graph; read-out: Dose which has no significant effect on water or total fluid intake. From the text: The dose of the choline acetylase inhibitor when administered according to the present invention is selected to cause effective aversion to alcohol consumption. Effective aversion is intended to mean either the complete lack of compulsion to consume alcohol or at least a reduction of the compulsion to a point where the subject may consume alcohol in a strictly elective manner without being dependent thereon. The dose is also selected to be substantially free of undesirable side effects. By this is meant that the side effects are at most of a trivial nature and unimportant relative to the benefit derived from the treatment. One effect of excessive dosage with a choline acetylase inhibitor is a reduction in water consumption. […]
The dose of trans-4-[2-(1-naphthyl)vinyl]pyridine hydrochloride which has no significant effect on water or total fluid intake of these animals was determined to be 2 mg./kg. This was determined by intraperitoneal injection of trans-4-[2-(1-naphthyl)vinyl]pyridine hydrochloride at 12 hourly intervals during the test period at various dosage concentrations for various groups of mice. […]

For series [2], the system named is rats trained on a conditioned avoidance procedure. To be noted: 2.0 mg./kg. intraperitoneally, 3 hr. session; cited from earlier work.
Setting [3] is: day 5, 2 mg./kg. i.p. at 12 hourly intervals.
Where [4] appears, read: day 6, 2 mg./kg. i.p. at 12 hourly intervals.

For the compound `C(=C\c1cccc2ccccc12)/c1ccncc1.Cl` [N V P, trans-4-[2-(1-naphthyl)vinyl]pyridine hydrochloride], in the series with C57B1/6J mice (5th and 6th days, 2 mg./kg. i.p., about 65% without drug), the “Alcohol consumption as share of the daily fluid intake on the days of drug treatment” value is “about 42%”. Besides, the “Total daily fluid intake during the experimental period” value with C57B1/6J mice (8-day experiment, drug on days 5 and 6) is “remained substantially constant”. The “5% alcohol daily consumption” value with C57B1/6J mice (day 5 (first treatment day)) turned out to be 60 ± 2 mL/kg; in the series with C57B1/6J mice (day 6 (second treatment day)) it was 82 ± 3 mL/kg. In addition, the “5% alcohol as % of total daily fluid intake” value in the series with C57B1/6J mice (setting [3]) was determined as 34%; in the series on C57B1/6J mice (setting [4]), 43%. Further, the “Total daily fluid consumption” value with C57B1/6J mice (setting [3]) was determined as 177 mL/kg; in the series on C57B1/6J mice (setting [4]), 193 mL/kg. The results for the Water daily consumption with C57B1/6J mice (setting [3]) and with C57B1/6J mice (setting [4]) were 117 ± 4 mL/kg and 111 ± 4 mL/kg, respectively. The “Water and alcohol intakes on cessation of drug treatment” value in the series with C57B1/6J mice (days 7 and 8, after drug treatment ended) is recorded as “returned substantially to their pretreatment values”. For the same compound, in series [1], the NOAEL is 2 mg/kg.

For the compound `CC(N)Cc1ccccc1` (stereo not shown) [amphetamine], in series [2], the “Increase in the response rate” value is ~75%.
